Results from the CheMixHub viscosity set.
± gives the uncertainty stated by the source.

Experiment: xn = mol fraction of the nth substance listed

OCCCO + CC(C)=O
viscosity [mPa·s], 100 kPa
Settings	x2 = 0.1008	x2 = 0.1914	x2 = 0.3021	x2 = 0.4009	x2 = 0.51	x2 = 0.6004	x2 = 0.7	x2 = 0.7983	x2 = 0.9002
293.15 K	29.2 ± 2.9	17.28 ± 1.7	9.162 ± 0.92	5.229 ± 0.52	2.942 ± 0.29	1.764 ± 0.18	1.321 ± 0.13	1.18 ± 0.24	1.04 ± 0.42
298.15 K	23.55 ± 2.4	14.22 ± 1.4	7.721 ± 0.77	4.496 ± 0.45	2.567 ± 0.26	1.583 ± 0.16	1.14 ± 0.11	1.038 ± 0.21	0.9174 ± 0.37
303.15 K	19.21 ± 1.9	11.82 ± 1.2	6.554 ± 0.66	3.894 ± 0.39	2.257 ± 0.23	1.428 ± 0.14	1.031 ± 0.1	0.9173 ± 0.18	0.8122 ± 0.32
308.15 K	15.86 ± 1.6	9.922 ± 1	5.609 ± 0.56	3.395 ± 0.34	1.997 ± 0.2	1.293 ± 0.13	0.9331 ± 0.094	0.8138 ± 0.16	0.722 ± 0.29
313.15 K	13.22 ± 1.3	8.416 ± 0.85	4.85 ± 0.49	2.979 ± 0.3	1.78 ± 0.18	1.175 ± 0.12	0.8442 ± 0.085	0.7248 ± 0.15	0.6442 ± 0.26
318.15 K	11.13 ± 1.1	7.191 ± 0.72	4.215 ± 0.42	2.633 ± 0.26	1.597 ± 0.16	1.07 ± 0.11	0.7632 ± 0.077	0.6479 ± 0.13	0.5768 ± 0.23
323.15 K	9.46 ± 0.95	6.198 ± 0.62	3.679 ± 0.37	2.343 ± 0.23	1.433 ± 0.14	0.9737 ± 0.098	0.6946 ± 0.07	0.5811 ± 0.12	0.5183 ± 0.21

NC=O + CN(C)C=O
298.15 K, 101.3 kPa
Settings	viscosity [mPa·s]
x1 = 0.1	1.041 ± 0.0088
x1 = 0.2	1.27 ± 0.011
x1 = 0.3	1.472 ± 0.013
x1 = 0.4	1.698 ± 0.015
x1 = 0.5	1.939 ± 0.017
x1 = 0.6	2.198 ± 0.019
x1 = 0.7	2.483 ± 0.022
x1 = 0.8	2.817 ± 0.025
x1 = 0.9	3.191 ± 0.029

CN1CCC[C@H]1c1cccnc1 + O
viscosity [mPa·s]
Settings	298.15 K	303.15 K	308.15 K	318.05 K	323.15 K
100 kPa, x1 = 0.006	–	1.33 ± 0.03	–	1.15 ± 0.02	–
100 kPa, x1 = 0.1	–	7.1 ± 0.2	–	4.1 ± 0.1	–
100 kPa, x1 = 0.3	–	14.2 ± 0.4	–	6.2 ± 0.2	–
100 kPa, x1 = 0.4	–	17.3 ± 0.5	–	5.8 ± 0.2	–
100 kPa, x1 = 0.5	–	11.1 ± 0.3	–	5 ± 0.1	–
100 kPa, x1 = 0.6	–	5.8 ± 0.1	–	3.1 ± 0.1	–
100 kPa, x1 = 0.7	–	4.5 ± 0.1	–	2.8 ± 0.1	–
100 kPa, x1 = 0.8	–	4.8 ± 0.1	–	3.5 ± 0.1	–
100 kPa, x1 = 0.9	–	2 ± 0.1	–	1.3 ± 0.1	–
101 kPa, x1 = 0.1202	11.12 ± 0.31	–	6.629 ± 0.18	–	3.436 ± 0.1
101 kPa, x1 = 0.1977	19.96 ± 0.54	–	10.4 ± 0.29	–	4.771 ± 0.15
101 kPa, x1 = 0.2424	23.83 ± 0.65	–	12.08 ± 0.34	–	5.382 ± 0.17
101 kPa, x1 = 0.2592	25.19 ± 0.69	–	12.24 ± 0.35	–	5.493 ± 0.17
101 kPa, x1 = 0.2808	24.43 ± 0.67	–	12.19 ± 0.34	–	5.403 ± 0.17
101 kPa, x1 = 0.3047	23.6 ± 0.65	–	12.1 ± 0.34	–	5.304 ± 0.16
101 kPa, x1 = 0.3692	21.03 ± 0.57	–	11.15 ± 0.31	–	5.146 ± 0.16
101 kPa, x1 = 0.4852	15.84 ± 0.43	–	8.817 ± 0.24	–	4.426 ± 0.13
101 kPa, x1 = 0.6052	11.43 ± 0.31	–	6.572 ± 0.18	–	3.624 ± 0.1
101 kPa, x1 = 0.7285	7.954 ± 0.22	–	4.832 ± 0.13	–	2.834 ± 0.078
101 kPa, x1 = 0.8635	5.014 ± 0.14	–	3.811 ± 0.1	–	2.486 ± 0.067

OCCCO + CCC(C)=O
Settings	viscosity [mPa·s]
318.15 K, 100 kPa, x1 = 0.7989	6.885 ± 0.075

O=S(=O)([O-])[O-].[NH4+].[NH4+] + O
viscosity [mPa·s], 101 kPa
Settings	298.15 K	308.15 K	318.15 K
x1 = 0.008901	0.9796 ± 0.032	0.8523 ± 0.028	0.7339 ± 0.025
x1 = 0.01765	1.709 ± 0.052	1.427 ± 0.044	1.231 ± 0.039

CCOC(=O)CCC(=O)OCC + CC(C)CCO
viscosity [mPa·s], 100 kPa
Settings	293.15 K	298.15 K	313.15 K
x1 = 0.5	–	2.025 ± 0.02	–
x1 = 0.7999	2.455 ± 0.024	–	1.635 ± 0.016

NC=O + CC(=O)N(C)C
viscosity [mPa·s], 101 kPa
Settings	298.15 K	308.15 K	318.15 K
x2 = 0.035	3.217 ± 0.14	2.532 ± 0.12	2.077 ± 0.096
x2 = 0.07	3.457 ± 0.15	2.677 ± 0.12	2.18 ± 0.1
x2 = 0.111	3.656 ± 0.16	2.847 ± 0.13	2.286 ± 0.11
x2 = 0.15	3.822 ± 0.17	2.95 ± 0.13	2.357 ± 0.11
x2 = 0.2053	3.966 ± 0.18	3.037 ± 0.14	2.416 ± 0.11
x2 = 0.2414	3.971 ± 0.18	3.057 ± 0.14	2.42 ± 0.11
x2 = 0.3009	3.932 ± 0.17	3.027 ± 0.14	2.389 ± 0.11
x2 = 0.3563	3.789 ± 0.17	2.92 ± 0.13	2.31 ± 0.11
x2 = 0.4177	3.537 ± 0.16	2.741 ± 0.12	2.16 ± 0.1
x2 = 0.458	3.338 ± 0.15	2.594 ± 0.12	2.076 ± 0.096
x2 = 0.5011	3.094 ± 0.14	2.43 ± 0.11	1.953 ± 0.091
x2 = 0.5474	2.826 ± 0.13	2.235 ± 0.1	1.81 ± 0.085
x2 = 0.5912	–	2.028 ± 0.094	–
x2 = 0.5972	2.53 ± 0.12	–	1.65 ± 0.078
x2 = 0.65	2.251 ± 0.1	1.812 ± 0.085	1.505 ± 0.072
x2 = 0.7092	1.916 ± 0.089	1.579 ± 0.075	1.316 ± 0.063
x2 = 0.75	1.72 ± 0.081	1.441 ± 0.069	1.205 ± 0.059
x2 = 0.7948	1.54 ± 0.073	1.289 ± 0.062	1.096 ± 0.054
x2 = 0.891	1.21 ± 0.059	1.035 ± 0.051	0.901 ± 0.045

OCCCO + CN(C)C=O
308.15 K, 101 kPa
Settings	viscosity [mPa·s]
x1 = 0.0229	0.76 ± 0.039
x1 = 0.0468	0.834 ± 0.042
x1 = 0.0914	0.904 ± 0.045
x1 = 0.2048	1.267 ± 0.061
x1 = 0.3032	1.748 ± 0.082
x1 = 0.397	2.4 ± 0.11
x1 = 0.4994	3.516 ± 0.16
x1 = 0.597	5.056 ± 0.22
x1 = 0.699	7.606 ± 0.3
x1 = 0.7983	11.93 ± 0.45
x1 = 0.9001	17.75 ± 0.65
x1 = 0.9477	20.44 ± 0.75

NC=O + CCCCO
Settings	viscosity [mPa·s]
293.15 K, 101 kPa, x1 = 0.1093	3.225 ± 0.072
298.15 K, 100 kPa, x1 = 0.09212	2.58 ± 0.06
298.15 K, 100 kPa, x1 = 0.1905	2.67 ± 0.06
298.15 K, 100 kPa, x1 = 0.2439	2.76 ± 0.06
298.15 K, 100 kPa, x1 = 0.2798	2.82 ± 0.06
298.15 K, 100 kPa, x1 = 0.3484	2.96 ± 0.07
298.15 K, 100 kPa, x1 = 0.4402	3.17 ± 0.07
298.15 K, 100 kPa, x1 = 0.5809	3.46 ± 0.08
298.15 K, 100 kPa, x1 = 0.6667	3.58 ± 0.08
298.15 K, 100 kPa, x1 = 0.7277	3.65 ± 0.08
298.15 K, 100 kPa, x1 = 0.7869	3.66 ± 0.08
298.15 K, 100 kPa, x1 = 0.8345	3.64 ± 0.08
298.15 K, 100 kPa, x1 = 0.8771	3.6 ± 0.08
298.15 K, 100 kPa, x1 = 0.9257	3.53 ± 0.08
298.15 K, 100 kPa, x1 = 0.9728	3.43 ± 0.08
